Counter-ions that a name gives are not always drawn.

The experiment concerns human umbilical cord endothelial cells (HUVEC). Put plainly: HUVEC proliferation assay and/or HUVEC adhesion assay. To be noted: bound stated for the listed compounds. It counts as cell-based. Here is the method:
HUVEC Proliferation Assay
1. Coat 3 NUNC polystyrene 96 well plate (VWR, 62409-120; lids 62409-118) with vitronectin (purified internally), fibronectin (Collaborative Biomed 40008A) or fibrinogen (Calbiochem 341578) 50 ng/well in 50 μl PBS, 1 hr @ RT.
a. rinse with 5 mls PBS (no Ca, Mg)
3. Rinse vitronectin plates 1× in 200 μl PBS −/− and add 3000 cells per well in 100 ul growth medium (EBM2 (Clonetics, CC-3156)+EGM2 bullet kit (CC-4176)).
4. Incubate 24 hours at 37° C. to allow attachment.
5. Remove growth medium and add 100 μl growth medium+drugs (25 μM and down by five fold steps in DMSO-0.25% final DMSO concentration).
6. Incubate for 3 days changing media (+drugs).
7. Remove non-adherent cells on Friday with Raindance 12 well plate washer.
8. Wash twice with 200 μl PBS (+Mg & Ca).
9. Tap out excess liquid.
10. Freeze @ −70° C. for 30 minutes.
11. Thaw plate and add 150 μl CyQuant fluorescent dye (Molecular Probes C-7026).
12. Read after 4 minutes @ 485λ (excitation), 530λ (emission).
1. Coat 2 NUNC polystyrene 96 well plates (VWR, 62409-120; lids 62409-118) with 50 μl vitronectin (purified internally) at 50 ng/well in PBS (−Mg & Ca), for 1 hour @ 37° C.
2. Rinse with PBS & block with 150 μl PBS/1% BSA (Sigma A8918), 1 hour at @ 37° C.
3. Prepare drug dilutions:
a. 400 fold concentrate in 100% DMSO
b. 0.25% DMSO [assay]final
c. 10 mM & down (25 μMfinal & down)
d. dilute 1 μl of 400 fold conc into 200 μl adhesion media
a. rinse with 5 ml PBS (no Ca, Mg)
6. Rinse blocking buffer from assay plate and add 50 μl of drug dilutions.
7. Resuspend cells in adhesion media, count and add 2e4 cells/well in 50 μl (4e5/ml).
8. Incubate 60 minutes @ 37° C.
9. Remove non-adherent cells with Raindance 12 well plate washer.
10. Wash twice with 200 μl PBS (+Mg & Ca)
11. Tap out excess liquid.
12. Freeze @ −70° C. for 30 minutes to overnite.
13. Thaw plate and add 150 μl CyQuant fluorescent dye (Molecular Probes C-7026).
14. Read after 2-5 minutes @ 485λ (excitation), 530λ (emission).
Adhesion medium: Media 199 (which contains […] and 0.8 mM MgSO4), 0.5% BSA, 10 mM HEPES, 1 mM MgCl2, and 1 mM MnCl2
A word on the IC50: it is the concentration needed to halve the response being measured. Read a low IC50 as greater potency in that assay. `Cc1cc(CCCNC(=O)N2CCC(CC(=O)O)c3ccccc3C2)nc2c1CCCN2` (stereo not drawn) [2-(2-{N-[3-(5-methyl-1,2,3,4-tetrahydropyridino[2,3-b]pyridin-7-yl)propyl]carbamoyl}-1H, 3H, 4H, 5H-benzo[e]azepin-5-yl)acetic acid] had a 50% inhibitory concentration (IC50) of at most 30 µM. To `O=C(O)CC1CN(C(=O)NCCc2ccc3c(n2)NCCC3)CCc2ccccc21` (stereo not drawn) [2-(3-(N-(2-(1,2,3,4-tetrahydropyridino[2,3-b]pyridin-7-yl)ethyl)carbamoyl)-1H, 2H, 4H, 5H-benzo[d]azepin-1-yl}acetic acid] belongs at most 30 µM; to `Cc1ccnc(NCCCCNC(=O)N2CCC(CC(=O)O)c3ccccc3C2)c1` (stereo not drawn) [2-[2-(N-{4-[(4-methyl-2-pyridyl)amino]butyl}carbamoyl)-1H, 3H, 4H, 5H-benzo[e]azepin-5-yl]acetic acid], at most 30 µM. In the case of `O=C(O)CC1CCN(C(=O)NCCCCNC(=O)NCc2ccccc2)Cc2ccccc21` (stereo not drawn) [2-{2-[N-(4-{[benzylamino]carbonylamino}butyl)carbamoyl]-1H, 3H, 4H, 5H-benzo[e]azepin-5-yl}acetic acid] it was at most 30 µM. In turn, `O=C(O)CC1CCN(C(=O)NCCCNc2ccccn2)Cc2ccccc21` (stereo not drawn) [Example 2, 2-(2-(N-(3-(2-pyridylamino)propyl)carbamoyl)-1H,3H,4H,5H-benzo[e]azain-5-yl)acetic acid] displayed an IC50 of at most 30 µM. To `O=C(O)CC1CCN(C(=O)NCCCCNc2ccccn2)Cc2ccccc21` (stereo not drawn) [Example 3, 2-(2-(N-(4-(2-pyridylamino)butyl)carbamoyl)-1H,3H,4H,5H-benzo[e]azapin-5-yl)acetic acid] belongs at most 30 µM; to `O=C(O)CC1CCN(C(=O)NCCCCCNc2ccccn2)Cc2ccccc21` (stereo not drawn) [Example 4, 2-(2-(N-(5-(2-pyridylamino)pent-1-yl)carbamoyl)-1H,3H,4H,5H-benzo[e]azapin-5-yl)acetic acid], at most 30 µM; to `CN(CCCCNc1ccccn1)C(=O)N1CCC(CC(=O)O)c2ccccc2C1` (stereo not drawn) [Example 5, 2-(2-(N-methyl—N-(4-(2-pyridylamino)but-1-yl)carbamoyl)-1H,3H,4H,5H-benzo[e]azapin-5-yl)acetic acid], at most 30 µM. On to `O=C(O)CC1CCN(C(=O)NC2CCC(Nc3ccccn3)CC2)Cc2ccccc21` (stereo not drawn) [Example 6, 2-(2-(N-(4-(2-pyridylamino)-trans-cyclohexyl)carbamoyl)-1H,3H,4H,5H-benzo[e]azapin-5-yl)acetic acid], for which the IC50 is at most 30 µM. In turn, `O=C(O)CC1CCN(C(=O)N2CCC(CNc3ccccn3)CC2)Cc2ccccc21` (stereo not drawn) [Example 7, 2-(2-(((4-(2-pyridylamino)methyl)piperid-1-yl)carbonyl)-1H,3H,4H,5H-benzo[e]azapin-5-yl)acetic acid] returned an IC50 of at most 30 µM.

`O=C(O)CC1CCN(C(=O)Nc2cccc(CNc3ccccn3)c2)Cc2ccccc21` (stereo not drawn) [Example 8, 2-(2-(N-(3-(2-pyridylamino)methylphenyl)carbamoyl)-1H,3H,4H,5H-benzo[e]azapin-5-yl)acetic acid]: the IC50 is at most 30 µM. To `Cc1cccc(NCCCCNC(=O)N2CCC(CC(=O)O)c3ccccc3C2)n1` (stereo not drawn) [Example 9, 2-(2-(N-(4-((6-methyl-2-pyridyl)amino)but-1-yl)carbamoyl)-1H,3H,4H,5H-benzo[e]azapin-5-yl)acetic acid] belongs at most 30 µM; to `O=C(O)CC1CCN(C(=O)NCCCCNc2ncccn2)Cc2ccccc21` (stereo not drawn) [Example 10, 2-(2-(N-(4-(pyrimidin-2-ylamino)but-1-yl)carbamoyl)-1H,3H,4H,5H-benzo[e]azapin-5-yl)acetic acid], at most 30 µM.

`Nc1cccc(CCCNC(=O)N2CCC(CC(=O)O)c3ccccc3C2)n1` (stereo not drawn) [Example 11, 2-(2-(N-(3-(6-amino-2-pyridyl)prop-1-yl)carbamoyl)-1H,3H,4H,5H-benzo[e]azapin-5-yl)acetic acid Hydrochloride] gave an IC50 of at most 30 µM.

Consider `CC(C)(C)OC(=O)Nc1cccc(CCCNC(=O)N2CCC(CC(=O)O)c3ccccc3C2)n1` (stereo not drawn) [Example 12, 2-(2-(N-(3-(6-(tert-butoxycarbonylamino)-2-pyridyl)proyl)carbamoyl)-1H,3H,4H,5H-benzo[e]azapin-5-yl)acetic acid], for which the half-maximal inhibitory concentration (IC50) is at most 30 µM. In the case of `O=C(O)CC1CCN(C(=O)NCCCc2ccc3c(n2)NCCC3)Cc2ccccc21` (stereo not drawn) [Example 13, 2-(2-(N-(3-(1,2,3,4-tetrahydropyridino(2,3-b)pyridin-7-yl)prop-1-yl)carbamoyl)-1H,3H,4H,5H-benzo[e]azapin-5-yl)acetic acid] it was at most 30 µM; in that of `O=C(O)CC1CCN(S(=O)(=O)NCCCCNc2ccccn2)Cc2ccccc21` (stereo not drawn) [Example 14, 2-(2-(((4-(2-pyridylamino)but-1-yl)amino)sulfonyl)-1H,3H,4H,5H-benzo[e]azapin-5-yl)acetic acid], at most 30 µM. The compound `O=C(O)CC1CCN(S(=O)(=O)NCCCNc2ccccn2)Cc2ccccc21` (stereo not drawn) [Example 15, 2-(2-(((3-(2-pyridylamino)prop-1-yl)amino)sulfonyl)-1H,3H,4H,5H-benzo[e]azapin-5-yl)acetic acid] had an IC50 of at most 30 µM. For the compound `O=C(O)CC1CCN(C(=O)CNCCNc2ccccn2)Cc2ccccc21` (stereo not drawn) [Example 16, 2-(2-(2-((2-(2-pyridylamino)ethyl)amino)acetyl)-1H,3H,4H,5H-benzo[e]azain-5-yl)acetic acid], the IC50 was at most 30 µM. The compound `O=C(O)CC1CCN(C(=O)CNCCCNc2ccccn2)Cc2ccccc21` (stereo not drawn) [Example 17] had an IC50 of at most 30 µM. In the case of `O=C(O)CC1CCN(C(=O)CNCCCCNc2ccccn2)Cc2ccccc21` (stereo not drawn) [Example 18], the concentration for half-maximal inhibition (IC50) was at most 30 µM. To `O=C(O)CC1CCN(CC(=O)NCCCNc2ccccn2)Cc2ccccc21` (stereo not drawn) [Example 19, 2-(2-((N-(3-(2-pyridylamino)prop-1-yl)carbamoyl)methyl)-1H,3H,4H,5H-benzo[e]azapin-5-yl)acetic acid] belongs at most 30 µM; to `O=C(O)CC1CCN(C(=O)OCCCCNc2ccccn2)Cc2ccccc21` (stereo not drawn) [Example 20, 2-(2-(4-(2-pyridylamino)but-1-oxycarbonyl)-1H,3H,4H,5H-benzo[e]azapin-5-yl)acetic acid], at most 30 µM. Take `COc1ccc2c(c1)CN(C(=O)NCCCCNc1ccccn1)CCC2CC(=O)O` (stereo not drawn) [Example 22, 2-(8-methoxy-2-(N-(4-(2-pyridylamino)but-1-yl)carbamoyl)-1H,3H,4H,5H-benzo[e]azaerhydroepin-5-yl)acetic acid]: the IC50 was at most 30 µM. To `O=C(O)CC1CCN(C(=O)NCCCc2ccc3c(n2)NCCC3)Cc2cc(F)ccc21` (stereo not drawn) [Example 24, 2-(8-fluoro-2-(N-(3-(1,2,3,4-tetrahydropyridino [2,3,b]pyridin-7-yl)propyl)carbamoyl)-1H,3H,4H,5H-benzo[e]azaperhydroepin-5-yl)acetic acid] belongs at most 30 µM; to `O=C(O)CC1CC(=O)N(CC(=O)NCCCNc2ccccn2)Cc2ccccc21` (stereo not drawn) [Example 25, 2-(2-({N-(4-(2-pyridylamino)prop-1-yl)carbamoyl}methyl)-3-oxo-1H,4H,5H-benzo(e)azepin-5-yl) acetic acid], at most 30 µM.

On to `O=C(O)CC1CN(CC(=O)NCCCCNc2ccccn2)CCc2ccccc21` (stereo not drawn) [Example 27, 2-(3-({N-(4-(2-pyridylamino)but-1-yl)carbamoyl}methyl)-1H,2H,4H,5H-benzo[d]azepin-1-yl) acetic acid], for which the IC50 was at most 30 µM.

These data come from patent US6514964B1, “Fused cycloheptane and fused azacycloheptane compounds and their methods of use” (Amgen Inc., priority 1999, dated 2003).
